# Measurements as given in patent publication EP0062319A1, “3-Methyl-1-(2-(3-naphthyloxy)-ethyl)-2-pyrazolin-5-one for the treatment of the metastasis and growth of tumour cells” (BAYER AG, priority 1981, dated 1982).
# Tests used:
# B-16a-Zellen = experiment: DNA synthesis by 3H-thymidine uptake in B-16a cells in vitro; type: cell-based, Mäuse; details: 0,1, 1,0, 10 and 25 µg/ml, 4 h and 18 h, Fig. 1, relative to control = 100 %
# Text: (§1) Die antineoplastische Wirksamkeit wurde in vitro durch Messung der DNS-Synthese sowohl von B-16a- als auch von Lewis-Lungenkarzinom-Zellen durch eine Methode gemessen, der die Thymidin-Aufnahme zugrundeliegt. Zellen, die in Vorbereitung der Zellteilung DNS synthetisieren, sind durch ihre Fähigkeit gekennzeichnet, Thymidin aufzunehmen. Demnach ist die Zell-Proliferation mit der DNS-Synthese verbunden. Wenn die Menge der durch die Tumorzellen synthetisierten DNS vermindert wird, so ist das ein Anzeichen dafür, daß die Zellteilung und damit das Tumorwachstum gehemmt worden ist.
# (§2) B-16a- und Lewis-Lungenkarzinom-Zellen wurden wie vor- stehend beschrieben erhalten. Die dispergierten Zellen wurden in sterilen 25 ml-Erlenmeyer-Kolben aus Kunststoff auf eine Konzentration von 1 x 10^5 Zellen/ml in MEM verdünnt. Tritium-markiertes Thymidin (^3H) mit einer spezifischen Aktivität von […] (50-80 Ci/mmol) wurde mit […] (2 µCi/ml) zu jedem ml der Zellsuspension hinzugefügt.
# (§3) Zu einer Reihe von Kolben, die die B-16 - und Lewis-Lungenkarzinom-Zellen enthielten, wurde die Pyrazolon-Verbindung in Mengen von 0,1 , 1,0 , 10 und 25 µg/ml des Gesamtvolumens hinzugefügt. […]
# [1] = test system: Lewis-Lungenkarzinom-Zellen; experiment: DNA synthesis by 3H-thymidine uptake in Lewis lung carcinoma cells in vitro; type: cell-based, Mäuse; details: 0,1, 1,0, 10 and 25 µg/ml, 4 h and 18 h, Fig. 1, relative to control = 100 %
# Text: as §1, §2, §3
# B-16 -Melanom-Zellen = experiment: Tumour cell proliferation and viability in tissue culture; type: cell-based, Mäuse; details: 0,1 to 25 µg/ml; cell counts after 8 days; Fig. 2
# Text: Die antineoplastische Wirksamkeit wurde außerdem durch direkte Messung des Wachstums der Tumorzellen in vitro in Gewebekulturen bestimmt. Diese Methode bedient sich des "Plating" oder Aufimpfens einer bekannten Anzahl von Tumorzellen auf ein Wachstumsmedium und der Bestimmung der Wirkung der Anwesenheit der zu prüfenden Verbindung auf die Tumorzellen-Proliferation. […] wurde die antineoplastische Aktivität in vivo in der Weise bestimmt, daß den Mäusen subkutan Tumorzellen injiziert wurden und das Auftreten von […] sowie […] in unbehandelten Kontrolltieren und in mit der Pyrazolon-Verbindung behandelten […] worden […] von 3 x 10^4 Zellen pro Platte überimpft. Die Zellen wurden in einem Medium aus MEM, Hank's Basic Salt Solution und 10 % […] bei Microbiological Associates, Walkersville, Maryland, kultiviert. Nach 24-stündiger Inkubation bei 37°C wurden die ZellZählungen durch […] Medium wurde […] und durch das oben bezeichnete.Medium und Pyrazolon in einem von 0,1 bis 25 μg/ml […]. Die Kontrollgruppen erhielten nur einen Austausch des Mediums. Danach wurde das Pyrazolon enthaltende Medium jeden zweiten Tag ersetzt. Nach 8 Tagen wurden Zellzählungen wie oben beschrieben durchgeführt, und die Lebensfähigkeit der Zellen wurde nach der weiter oben genannten Vitalfarbstoff-Ausschlußmethode (vital dye exclusive method) bestimmt. Die Daten sind dargestellt als Mittelwert der Zahl […] aus […]. […]
# Lewis-Lungen-Karzinom = experiment: Tumour incidence and final tumour weight of subcutaneous Lewis lung carcinoma in mice; type: in vivo, C57BL/6J Mäuse; details: killed day 22; for Gewicht: final tumour weight
# Text: Die antineoplastische Wirksamkeit wurde außerdem durch direkte Messung des Wachstums der Tumorzellen in vitro in Gewebekulturen bestimmt. Diese Methode bedient sich des "Plating" oder Aufimpfens einer bekannten Anzahl von Tumorzellen auf ein Wachstumsmedium und der Bestimmung der Wirkung der Anwesenheit der zu prüfenden Verbindung auf die Tumorzellen-Proliferation. Schließlich wurde die antineoplastische Aktivität in vivo in der Weise bestimmt, daß den Mäusen subkutan Tumorzellen injiziert wurden und das Auftreten von Tumorzellenwachstum sowie das Gewicht der wachsenden Tumorzellen in unbehandelten Kontrolltieren und in mit der Pyrazolon-Verbindung behandelten Tieren bestimmt wurden.
# 3 mg 3-Methyl-1-[2-(2-naphthyloxy)-ethyl]-2-pyrazolin-5-on wurden in 0,6 ml Ethylalkohol gelöst, und die Lösung wurde mit konzentrierter Natronlauge auf einen pH von 9,5 eingestellt.
# Syngeneischen C57BL/6J Wirts-Mäusen wurden 1 x 10^5 Lewis-Lungenkarzinom-Zellen (0,2 ml) subkutan in die Achselhöhlenregion injiziert. Nach einem Zeitraum von 24 Stunden wurde die Pyrazolon-Verbindung 21 Tage lang täglich verabreicht. Die Wirkung der Verabreichung von Theophyllin zusammen mit der Pyrazolon-Verbindung wurde ebenfalls untersucht. Während des Zeitraums wurden die Mäuse unter identischen Bedingungen der Temperatur, Lichteinwirkungsdauer, Ernährung etc. gehalten. Die Mäuse wurden 22 Tage nach der Injektion der Tumorzellen getötet und mittels einer Gesamt-Nekropsie auf die Anwesenheit subkutaner Tumoren untersucht. Vorhandene Tumoren wurden entfernt und auf einer Analysenwaage gewogen.
structure (smiles),measurement,setting,value
CC1=NN(CCOc2ccc3ccccc3c2)C(=O)C1 [3-Methyl-1-[2-(2-naphthyloxy)-ethyl]-2-pyrazolin-5-on],DNS-Synthese (3H-Thymidinaufnahme),B-16a-Zellen,konzentrationsabhängige Abnahme der DNS-Synthese
same,DNS-Synthese (3H-Thymidinaufnahme),[1],konzentrationsabhängige Abnahme der DNS-Synthese
same,Tumorzellen-Proliferation,B-16 -Melanom-Zellen,die Tumorzellen-Proliferation über den gleichen Dosierungsbereich hemmte
same,Tumor-Häufigkeit Anzahl,Lewis-Lungen-Karzinom; 0.01 mg daily s.c. for 21 days from 24 h after 10^5 3LL cells s.c.,3/12
same,Tumor-Häufigkeit %,Lewis-Lungen-Karzinom; 0.01 mg daily s.c. for 21 days,25%
same,Tumor-Häufigkeit %,Lewis-Lungen-Karzinom; 0.02 mg daily s.c. for 21 days,33%
same,Tumor-Häufigkeit Anzahl,Lewis-Lungen-Karzinom; 0.02 mg daily s.c. for 21 days,4/12
same,Tumor-Häufigkeit %,Lewis-Lungen-Karzinom; 0.08 mg daily s.c. for 21 days,8%
same,Tumor-Häufigkeit Anzahl,Lewis-Lungen-Karzinom; 0.08 mg daily s.c. for 21 days,1/12
same,Gewicht,Lewis-Lungen-Karzinom; 0.01 mg daily s.c. for 21 days,0.74 ± 0.46 mg
same,Gewicht,Lewis-Lungen-Karzinom; 0.02 mg daily s.c. for 21 days,0.49 ± 0.27 mg
same,Gewicht,Lewis-Lungen-Karzinom; 0.08 mg daily s.c. for 21 days,0.16 mg
